Laboratory results: US12357619B2, “Noradrenergic and specific serotonergic anxiolytic and antidepressant, method for the production and use thereof” (ALLA CHEM, LLC, priority 2020, dated 2025)

Key:
[1] = tested on: people with generalized anxiety disorder (GAD); experiment: Randomized double-blind placebo-controlled GAD study, Hamilton anxiety scale (HARS); format: in vivo, human; conditions: for HARS average change (standard error): after 8 weeks; for Patients who attained a 50% HARS total score reduction at Week 8, percentage / Patients who attained a 50% HARS total score reduction at Week 8, X (number): MITT population
Procedure: Example 12. Efficacy and safety study of the oral drug of this invention made as a pharmaceutical composition of this invention in capsules. […] During the study, 3 scheduled visits were conducted in Week 2, Week 4, and Week 8 to assess the effectiveness and safety of the therapy as well as drug inventory and administration. During all of those visits, the patient's diary was checked, a drug inventory was made and the patients' compliance was assessed. In addition, adverse events, concomitant therapy, and vital signs were evaluated, urine drug screen was performed, and assessments using Hamilton Anxiety Rating Scale (HARS), Hamilton Depression Scale (HAMD), Clinical Global Impression-Severity (CGI-S), Clinical Global Impression-Improvement (CGI-I), and Visual Analog Scale (VAS) were made; women of child-bearing potential will take a urine pregnancy test. Also, during visits at Week 4 and Week 8 a physical examination was performed, body weight was measured, an ECG was performed in 12 leads and blood and urine samples were obtained for laboratory tests, namely: urinalysis and biochemical blood analysis, PK analysis before and 1 hour after taking the study drug (SD), and urinalysis. At Week 4, a blood sample was also obtained for genotyping by CYP2D6. At Week 8, treatment in the groups was completed, and all patients were prescribed a placebo to be taken during the follow-up period, which lasted 1 week. During this time, a possible development of SD withdrawal syndrome against the background of placebo was evaluated. During the visit at Week 9, the patient's diary was checked, a drug inventory was made and the patients' compliance was assessed. In addition, adverse events, concomitant therapy, and vital signs were evaluated, urine drug screen was performed, and assessments using the Hamilton Anxiety Rating Scale (HARS), Hamilton Depression Scale (HAMD), Clinical Global Impression-Severity (CGI-S), Clinical Global Impression-Improvement (CGI-I), and Visual Analog Scale (VAS) were made; women of child-bearing age will take a urine pregnancy test. At this point, the patients' participation in the study was completed, and they received recommendations for further treatment as part of standard GAD therapy.

[2] = tested on: people with generalized anxiety disorder (GAD); experiment: Randomized double-blind placebo-controlled GAD study, clinical global impression-improvement (CGI-I); format: in vivo, human; conditions: after 8 weeks
Procedure: (§1) Example 12. Efficacy and safety study of the oral drug of this invention made as a pharmaceutical composition of this invention in capsules. […] During the study, 3 scheduled visits were conducted in Week 2, Week 4, and Week 8 to assess the effectiveness and safety of the therapy as well as drug inventory and administration. During all of those visits, the patient's diary was checked, a drug inventory was made and the patients' compliance was assessed. In addition, adverse events, concomitant therapy, and vital signs were evaluated, urine drug screen was performed, and assessments using Hamilton Anxiety Rating Scale (HARS), Hamilton Depression Scale (HAMD), Clinical Global Impression-Severity (CGI-S), Clinical Global Impression-Improvement (CGI-I), and Visual Analog Scale (VAS) were made; women of child-bearing potential will take a urine pregnancy test. Also, during visits at Week 4 and Week 8 a physical examination was performed, body weight was measured, an ECG was performed in 12 leads and blood and urine samples were obtained for laboratory tests, namely: urinalysis and biochemical blood analysis, PK analysis before and 1 hour after taking the study drug (SD), and urinalysis. At Week 4, a blood sample was also obtained for genotyping by CYP2D6. […] During this time, a possible development of SD withdrawal syndrome against the background of placebo was evaluated. […]

Adrenergic α2C = target: T1, Adrenergic α2C (Homo sapiens, UniProt P18825); experiment: Receptor activities, Ki (Table 1); format: binding
T1 sequence (P18825 1-462): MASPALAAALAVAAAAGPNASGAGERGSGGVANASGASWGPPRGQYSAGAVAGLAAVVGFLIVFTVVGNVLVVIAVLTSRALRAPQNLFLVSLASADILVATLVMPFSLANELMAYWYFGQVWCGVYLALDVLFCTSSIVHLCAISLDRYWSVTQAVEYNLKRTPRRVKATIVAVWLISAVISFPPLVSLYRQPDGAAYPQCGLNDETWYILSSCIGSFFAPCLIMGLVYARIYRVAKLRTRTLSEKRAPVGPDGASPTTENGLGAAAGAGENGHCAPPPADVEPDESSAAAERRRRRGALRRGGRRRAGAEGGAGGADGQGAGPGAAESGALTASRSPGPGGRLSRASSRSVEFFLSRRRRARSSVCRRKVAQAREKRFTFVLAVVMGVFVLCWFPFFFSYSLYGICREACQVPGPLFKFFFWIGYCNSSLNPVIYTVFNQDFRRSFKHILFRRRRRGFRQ

Serotonin 5-HT1A = target: T2, Serotonin 5-HT1A (Homo sapiens, UniProt P08908); experiment: Receptor activities, Ki (Table 1); format: binding
T2 sequence (P08908 1-422): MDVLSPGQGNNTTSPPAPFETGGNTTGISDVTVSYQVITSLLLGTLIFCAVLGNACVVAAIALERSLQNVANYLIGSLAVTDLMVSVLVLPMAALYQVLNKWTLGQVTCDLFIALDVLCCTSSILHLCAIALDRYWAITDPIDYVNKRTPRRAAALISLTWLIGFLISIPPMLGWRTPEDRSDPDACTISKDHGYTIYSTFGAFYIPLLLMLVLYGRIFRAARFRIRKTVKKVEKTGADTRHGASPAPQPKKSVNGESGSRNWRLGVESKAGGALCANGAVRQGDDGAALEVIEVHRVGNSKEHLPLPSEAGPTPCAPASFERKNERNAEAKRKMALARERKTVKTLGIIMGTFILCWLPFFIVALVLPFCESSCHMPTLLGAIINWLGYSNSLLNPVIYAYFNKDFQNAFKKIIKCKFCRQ

[3] = tested on: people with generalized anxiety disorder (GAD); experiment: Randomized double-blind placebo-controlled GAD study, clinical global impression-severity (CGI-S); format: in vivo, human; conditions: after 8 weeks
Procedure: as §1

volunteers = experiment: Safety of increasing doses, single and multiple dosing of capsules in volunteers (Example 11); format: in vivo, human
Procedure: Example 11. Safety study of increasing doses of the oral drug of this invention made as a pharmaceutical composition of this invention in capsules. Clinical safety study of increasing doses of the antipsychotic drug made as a pharmaceutical composition of this invention in capsules for single and multiple dosing. The study covered one cohort of 4 volunteers taking antipsychotic drug once at a dose of 20 mg, and then at the same dose 2 times a day for 4 days. Based on the three-week safety data obtained in the 20-mg cohort taking antipsychotic drug twice a day, the independent safety data monitoring Committee took a decision to involve a second cohort of 4 volunteers, in which the antipsychotic drug under test was taken once at a dose of 20 mg and then 3 times a day for 4 days at the same dose.

healthy volunteers = experiment: Safety, single oral administration of capsules in healthy volunteers (Example 10); format: in vivo, human
Procedure: Example 10. Clinical study of the safety of the oral drug of this invention. An open-label clinical trial of the pharmacokinetics of the antipsychotic drug made as a pharmaceutical composition of this invention in capsules, was conducted with a single oral administration in 32 healthy volunteers at doses of 2 mg/day (cohort 1, 8 volunteers), 4 mg/day (cohort 1, 8 volunteers), 10 mg/day (cohort 1, 8 volunteers), and 20 mg/day (cohort 1, 8 volunteers), expressed as base A, in accordance with the recommendations of “Good clinical practice (GCP)” on physically and mentally healthy men aged 20-50 years with a body mass index of […].

[4] = 20 mg once, then 20 mg 2 or 3 times a day for 4 days
[5] = single doses of 2, 4, 10, and 20 mg, healthy volunteers

Cc1ccc2c(c1)c1c(n2CCc2ccccc2)CCN(C)C1.Cl [A•HCl, 2,8-dimethyl-5-(2-phenylethyl)-2,3,4,5-tetrahydro-1H-pyrido[4,3-b]indole hydrochloride]
HARS average change (standard error) ([1]; 40 mg, N = 42, average at Week 0 26.9): −13.4 (1.37) | HARS average change (standard error) ([1]; 60 mg, N = 44, average at Week 0 26.5): −12.9 (1.37) | Patients who attained a 50% HARS total score reduction at Week 8, percentage ([1]; Dose 60 mg, N = 40): (55.0%) | Patients who attained a 50% HARS total score reduction at Week 8, X (number) ([1]; Dose 60 mg, N = 40, of Y = 40 patients): 22 | Patients who attained a 50% HARS total score reduction at Week 8, percentage ([1]; printed Dose 60 mg, N = 42): (47.6%) | Patients who attained a 50% HARS total score reduction at Week 8, X (number) ([1]; printed Dose 60 mg, N = 42, of Y = 42 patients): 20 | CGI-I average change (standard error) ([2]; 40 mg, N = 42, average at Week 0 4.00): −1.63 (0.14) | CGI-I average change (standard error) ([2]; 60 mg, N = 44, average at Week 0 4.03): −1.68 (0.14) | Ki (Adrenergic α2C): 0.00355 µM | Ki (Serotonin 5-HT1A): 0.061 µM | CGI-S average change (standard error) ([3]; 40 mg, N = 42, average at Week 0 4.24): −1.34 (0.19) | CGI-S average change (standard error) ([3]; 60 mg, N = 44, average at Week 0 4.28): −1.21 (0.19) | Adverse events associated with taking the drug (volunteers; [4]): did not reveal any adverse events (AEs) associated with taking the drug | Safety profile and tolerability (volunteers; [4]): favorable safety profile and good tolerability | Occurrence of AE by daily dose (volunteers; 40 mg and 60 mg daily dose cohorts): AE were observed only in volunteers who received a daily dose of 60 mg | Side effects observed (healthy volunteers; 20-mg cohort, single dose): drowsiness, agitation and paresthesia | Effect on the parameters of plasma and urine (healthy volunteers; [5]): neither significantly affect the parameters of plasma and urine | Tolerability (healthy volunteers; [5]): well tolerated
